From article PMC12721191, “Oxidative hypoxia drives TGF-β1–induced fibrosis under normoxia” (Redox Biology, 2025) come the findings set out here.

One series deals with T1, CYP2B6 (Homo sapiens, UniProt P20813).
T1 construct: tissue Xenotech H0630; host or cells: pooled human liver microsomes
T1 sequence (P20813 1-491): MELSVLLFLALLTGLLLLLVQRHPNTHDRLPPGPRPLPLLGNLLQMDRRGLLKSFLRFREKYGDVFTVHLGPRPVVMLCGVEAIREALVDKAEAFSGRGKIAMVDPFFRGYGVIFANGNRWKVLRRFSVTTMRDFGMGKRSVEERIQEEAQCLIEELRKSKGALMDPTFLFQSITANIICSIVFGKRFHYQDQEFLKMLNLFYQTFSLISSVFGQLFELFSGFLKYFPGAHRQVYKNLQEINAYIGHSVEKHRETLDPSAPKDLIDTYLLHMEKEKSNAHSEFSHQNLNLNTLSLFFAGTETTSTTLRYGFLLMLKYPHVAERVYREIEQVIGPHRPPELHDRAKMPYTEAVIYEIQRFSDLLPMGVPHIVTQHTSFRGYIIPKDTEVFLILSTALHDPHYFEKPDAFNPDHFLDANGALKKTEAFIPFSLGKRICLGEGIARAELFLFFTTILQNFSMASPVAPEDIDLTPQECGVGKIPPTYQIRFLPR
Description: Cytochrome P450 inhibition assay in HLMs. The series is classed as in vitro ADME. Particulars: Bupropion hydroxylation, pooled HLMs, up to 50 μM. On the procedure: (§1) Cytochrome P450 Inhibition Assay: […] All experiments were performed in triplicate. Phenacetin O-deethylase, coumarin hydroxylase, bupropion hydroxylase, amodiaquine N-deethylase, tolbutamide 4-hydroxylase, S-mephenytoin hydroxylase, dextromethorphan O-demethylase, chlorozoxazone 6-hydroxylase, and midazolam 1’-hydroxylase activities were determined as probe activities for CYP1A2, CYP2A6, CYP2B6, CYP2C8, CYP2C9, CYP2C19, CYP2D6, CYP2E1, and CYP3A, respectively, using cocktail incubation and tandem mass spectrometry, as described previously^2,3.

Another series deals with T2, CYP1A2 (Homo sapiens, UniProt P05177).
T2 sequence (P05177 1-516): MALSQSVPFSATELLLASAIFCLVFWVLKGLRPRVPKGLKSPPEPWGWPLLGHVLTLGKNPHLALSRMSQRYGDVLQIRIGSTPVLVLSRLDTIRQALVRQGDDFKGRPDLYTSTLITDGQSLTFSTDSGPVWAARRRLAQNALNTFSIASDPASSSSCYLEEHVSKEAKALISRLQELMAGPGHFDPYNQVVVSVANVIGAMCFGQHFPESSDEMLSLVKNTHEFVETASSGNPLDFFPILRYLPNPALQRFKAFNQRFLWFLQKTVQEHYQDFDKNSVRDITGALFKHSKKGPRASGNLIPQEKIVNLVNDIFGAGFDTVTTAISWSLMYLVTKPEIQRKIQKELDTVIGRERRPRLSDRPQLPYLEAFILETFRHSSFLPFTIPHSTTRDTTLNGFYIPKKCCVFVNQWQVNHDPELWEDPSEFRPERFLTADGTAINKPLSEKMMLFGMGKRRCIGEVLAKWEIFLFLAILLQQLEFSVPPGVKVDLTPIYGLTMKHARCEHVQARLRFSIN
Description: Cytochrome P450 inhibition assay in HLMs. The series is classed as in vitro ADME. Particulars: Phenacetin O-deethylation, pooled HLMs, up to 50 μM. Here is the method:
as §1

The target in a further series is T3, CYP2D6 (Homo sapiens, UniProt P10635).
T3 construct: tissue Xenotech H0630; host or cells: pooled human liver microsomes
T3 sequence (P10635 whole entry): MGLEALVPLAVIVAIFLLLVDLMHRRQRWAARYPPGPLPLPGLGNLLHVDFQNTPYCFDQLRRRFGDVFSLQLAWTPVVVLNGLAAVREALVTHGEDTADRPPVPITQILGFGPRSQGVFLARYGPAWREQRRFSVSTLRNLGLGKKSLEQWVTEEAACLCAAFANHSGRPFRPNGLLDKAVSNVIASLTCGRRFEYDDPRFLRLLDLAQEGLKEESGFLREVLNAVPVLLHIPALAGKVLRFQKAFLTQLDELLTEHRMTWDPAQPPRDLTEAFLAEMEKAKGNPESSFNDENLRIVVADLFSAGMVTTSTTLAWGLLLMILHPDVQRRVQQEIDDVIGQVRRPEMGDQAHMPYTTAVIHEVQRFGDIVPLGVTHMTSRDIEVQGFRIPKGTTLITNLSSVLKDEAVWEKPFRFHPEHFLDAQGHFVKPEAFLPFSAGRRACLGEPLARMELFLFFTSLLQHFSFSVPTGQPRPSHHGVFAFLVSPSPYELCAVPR
Description: Cytochrome P450 inhibition assay in HLMs. The class given is in vitro ADME. Conditions: Dextromethorphan O-demethylation, pooled HLMs, up to 50 μM. Here is the method: as §1

For the next series, the target named is T4, CYP2C9 (Homo sapiens, UniProt P11712).
T4 construct: tissue Xenotech H0630; host or cells: pooled human liver microsomes
T4 sequence (P11712 whole entry): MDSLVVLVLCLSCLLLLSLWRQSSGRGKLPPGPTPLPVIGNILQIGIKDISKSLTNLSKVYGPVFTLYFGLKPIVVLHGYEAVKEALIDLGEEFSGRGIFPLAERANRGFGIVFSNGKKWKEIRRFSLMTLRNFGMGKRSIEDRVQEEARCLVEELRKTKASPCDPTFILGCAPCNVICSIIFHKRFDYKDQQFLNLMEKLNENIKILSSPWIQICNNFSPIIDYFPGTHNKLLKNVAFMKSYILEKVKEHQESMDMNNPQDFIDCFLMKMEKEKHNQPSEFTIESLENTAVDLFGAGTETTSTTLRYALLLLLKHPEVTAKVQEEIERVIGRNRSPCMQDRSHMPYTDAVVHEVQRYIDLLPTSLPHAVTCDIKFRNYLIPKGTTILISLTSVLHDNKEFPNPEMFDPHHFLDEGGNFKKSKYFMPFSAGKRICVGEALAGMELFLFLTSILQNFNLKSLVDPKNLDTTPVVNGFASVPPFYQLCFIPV
Briefly: Cytochrome P450 inhibition assay in HLMs. The class given is in vitro ADME. Conditions: Diclofenac 4-hydroxylation, pooled HLMs, up to 50 μM. On the procedure: as §1

A further series concerns the target T5, CYP2A6 (Homo sapiens, UniProt P11509).
T5 construct: tissue Xenotech H0630; host or cells: pooled human liver microsomes
T5 sequence (P11509 1-494): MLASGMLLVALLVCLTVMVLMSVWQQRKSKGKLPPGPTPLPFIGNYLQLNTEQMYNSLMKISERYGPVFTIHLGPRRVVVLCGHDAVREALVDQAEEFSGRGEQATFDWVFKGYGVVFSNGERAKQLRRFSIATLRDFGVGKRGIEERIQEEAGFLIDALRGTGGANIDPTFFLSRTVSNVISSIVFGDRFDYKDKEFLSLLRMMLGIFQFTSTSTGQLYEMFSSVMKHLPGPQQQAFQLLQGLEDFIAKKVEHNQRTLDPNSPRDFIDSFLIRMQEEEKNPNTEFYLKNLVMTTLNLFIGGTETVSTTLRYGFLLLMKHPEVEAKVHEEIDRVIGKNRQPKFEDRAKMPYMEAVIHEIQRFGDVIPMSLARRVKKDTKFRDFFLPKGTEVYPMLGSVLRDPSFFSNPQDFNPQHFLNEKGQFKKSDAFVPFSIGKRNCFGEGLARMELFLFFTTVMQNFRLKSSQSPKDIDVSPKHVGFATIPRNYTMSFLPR
Briefly: Cytochrome P450 inhibition assay in HLMs. Particulars: Coumarin 7-hydroxylation, pooled HLMs, up to 50 μM. The class given is in vitro ADME. Here is the method:
as §1

The next series concerns the target T6, CYP2E1 (Homo sapiens, UniProt P05181).
T6 construct: tissue Xenotech H0630; host or cells: pooled human liver microsomes
Briefly: Cytochrome P450 inhibition assay in HLMs. The class given is in vitro ADME. Particulars: Chlorozoxazone 6-hydroxylation, pooled HLMs, up to 50 μM. Here is the method: as §1

The next series deals with CYP3A (Homo sapiens, UniProt P08684). Description: Cytochrome P450 inhibition assay in HLMs. The series is classed as in vitro ADME. Particulars: pooled human liver microsomes, probe midazolam (1'-hydroxylation), up to 50 μM. Here is the method:
as §1
In general terms: Liver microsomes are vesicles of endoplasmic reticulum, rich in cytochrome P450 enzymes.

The subject of the next series is A549. Briefly: Intracellular ROS staining (DHR123 microscopy, CM-H2DCFDA flow cytometry). The series is classed as cell-based, human. Here is the method:
CellROX™ Deep Red or DHR123 fluorescence microscopy, and CM-H2DCFDA flow cytometry, were used to quantify intracellular ROS.
Dihydrorhodamine (DHR)123: Cells were similarly seeded at 3 × 10⁴ cells per well in 1 mL of medium on Cell Culture Slide I. After the desired treatments and incubation times, the medium was removed, cells were washed with PBS, and 10 µM Dihydrorhodamine 123 in PBS was applied for 30 min at 37 °C. Hoechst 33342 (0.5 µg/mL) was added for the final 10 min. Cells were then washed in PBS and imaged with the EVOS™ M7000 system in the Cy2 channel.
CM-H₂DCFDA: Cells (2 × 10⁵) were plated in 2 mL of medium per well in a 6-well plate. After treatment for the indicated times, the medium was removed, and cells were washed once with PBS. CM-H₂DCFDA (10 µM) in PBS was added for 30 min at 37 °C, followed by a 10 min equilibration in PBS. Cells were then detached with trypsin for 1 min, neutralized with FBS, pelleted by centrifugation, and resuspended in PBS. Fluorescence was measured using a CytoFLEX LX flow cytometer (excitation/emission: 485/520 nm).

CYP3A, sequence (P08684 2-503): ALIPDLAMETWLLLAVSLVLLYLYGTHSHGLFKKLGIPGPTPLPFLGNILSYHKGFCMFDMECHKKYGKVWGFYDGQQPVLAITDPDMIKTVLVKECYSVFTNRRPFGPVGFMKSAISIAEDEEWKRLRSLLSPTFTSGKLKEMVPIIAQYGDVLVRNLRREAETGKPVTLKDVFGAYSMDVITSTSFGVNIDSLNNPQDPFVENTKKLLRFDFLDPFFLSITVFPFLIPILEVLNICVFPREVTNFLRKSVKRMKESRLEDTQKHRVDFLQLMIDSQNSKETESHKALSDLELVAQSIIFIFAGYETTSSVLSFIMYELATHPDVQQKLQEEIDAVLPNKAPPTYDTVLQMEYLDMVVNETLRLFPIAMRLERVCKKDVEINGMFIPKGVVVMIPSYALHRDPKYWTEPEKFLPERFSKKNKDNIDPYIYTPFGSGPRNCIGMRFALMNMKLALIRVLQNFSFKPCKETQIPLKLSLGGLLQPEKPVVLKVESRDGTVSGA
T6 sequence (P05181 whole entry): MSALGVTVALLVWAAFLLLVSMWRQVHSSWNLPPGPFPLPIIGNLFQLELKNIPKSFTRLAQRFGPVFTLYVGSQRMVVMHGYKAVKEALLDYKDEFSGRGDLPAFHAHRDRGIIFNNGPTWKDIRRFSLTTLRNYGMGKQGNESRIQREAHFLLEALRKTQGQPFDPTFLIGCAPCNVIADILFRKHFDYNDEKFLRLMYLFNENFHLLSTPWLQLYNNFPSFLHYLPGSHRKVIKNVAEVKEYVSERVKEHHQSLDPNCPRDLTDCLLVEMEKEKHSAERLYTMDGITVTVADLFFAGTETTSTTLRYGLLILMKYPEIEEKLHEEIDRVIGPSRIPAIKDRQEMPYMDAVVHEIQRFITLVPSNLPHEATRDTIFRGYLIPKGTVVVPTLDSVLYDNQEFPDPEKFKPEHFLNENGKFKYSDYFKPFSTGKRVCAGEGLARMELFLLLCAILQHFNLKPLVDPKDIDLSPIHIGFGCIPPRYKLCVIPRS

Take `COc1ccc(-c2c(-c3ccc(O)c(OC)c3)oc3cc(OC)c(OC)cc3c2=O)cc1` [ACF-2]: the IC50 at CYP2B6 was more than 50 µM; on CYP1A2, more than 50 µM; against CYP2D6, 40.2 ± 12.4 µM; against CYP2C9, 18.1 ± 4.61 µM; against CYP2A6 it was more than 50 µM; at CYP2E1, more than 50 µM. The compound also displayed an IC50 against CYP3A of more than 50 µM. In the series on A549 (A549, ACF-2 7 μM, TGF-β1 6 h), the “TGF-β1-induced ROS (DCFDA flow cytometry)” value is “effectively suppressed TGF-β1-induced ROS elevation”. In addition, the “TGF-β1-induced ROS (DHR123)” value with A549 (A549, TGF-β1 6 h, NAC 10 mM as comparator) was “reduced TGF-β1-induced ROS accumulation even more effectively than NAC”.

A word on the IC50: it is the concentration at which inhibition is half-maximal. High values mean a need for much substance, low ones inhibition by little substance.
